# What was measured:
# [1] = test system: MDA-MB-468 breast tumor cells; test: Akt, S6K and ERK phosphorylation immunoblots; assay type: cell-based, human
# Description: FIG. 40, comprising FIGS. 40A-40C, illustrates Sigma1 antagonist modulation of Akt, S6K, and ERK phosphorylation. MDA-MB-468 breast tumor cells were treated for 24 hours with 10 μM IPAG (Sigma1 antagonist) or (+)SKF-10047 (SKF, Sigma1 agonist). Treated cells were harvested and cellular proteins were extracted with a buffer containing 1% Sodium Dodecyl Sulfate (SDS) and deoxycholate (DOC), supplemented with phosphatase and protease inhibitors. FIG. 40A is an image of an immunoblot illustrating Akt phosphorylation. […] Akt phosphorylation at threonine 308 was not altered in any of the samples (not shown). Equivalent loading was confirmed with an anti-GAPDH antibody. FIG. 40B is an image of an immunoblot illustrating phosphorylation. Phosphorylation of mTOR substrate, p70S6K at threonine 389 decreased 3-fold in IPAG, but not SKF treated cells. Total p70S6K was immunoblotted as a loading control. FIG. 40C is an immunoblot illustrating that p44/42 ERK1/2phosphorylation at threonine 202 and tyrosine 204 was abrogated by 24 hour treatment with IPAG. Data shown is representative of two independent experiments.
# [2] = test system: T47D and MDA-MB-468 cells; test: Cell cycle profile (G1, S, G2 phase cells); assay type: cell-based, human; conditions: 24 hours; IPAG 1 μM (T47D) or 10 μM (MDA-MB-468); (+)-SKF-10047 10 μM
# Description: FIG. 30, comprising FIGS. 30A-30B, illustrates that Sigma1 antagonists mediate cell cycle arrest. […] FIG. 30A is a graph illustrating the percentage of G1, S, and G2 phase cells in T47D cells treated for 24 hours with DMSO (vehicle control), 1 μM IPAG (Sigma1 antagonist), or 10 μM (+)SKF-10047 (Sigma1 agonist). FIG. 30 B is a graph illustrating the percentage of G1, S, and G2 phase cells in MDA-MB-468 cells treated for 24 hours with DMSO (vehicle control), 10 μM IPAG (Sigma1 antagonist), or 10 μM (+)-SKF-10047 (Sigma1 agonist).
# [3] = target: T1, Sigma1-HA-His6 protein associations in MDA-MB-468 cells (Mus musculus, UniProt O55242); test: Ni-NTA co-purification of Sigma1-HA-His6 associated proteins; assay type: cell-based; conditions: 10 μM, 12 hours
# T1 construct: expressed in transfected cells; host or cells: MDA-MB-468 breast adenocarcinoma cells
# T1 sequence (O55242 whole entry): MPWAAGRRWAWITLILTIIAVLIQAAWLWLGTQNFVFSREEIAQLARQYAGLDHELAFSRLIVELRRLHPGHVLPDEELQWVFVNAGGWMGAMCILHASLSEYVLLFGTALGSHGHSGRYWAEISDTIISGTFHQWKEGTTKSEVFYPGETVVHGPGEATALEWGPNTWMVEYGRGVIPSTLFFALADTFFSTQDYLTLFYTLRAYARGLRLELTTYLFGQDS
# Source text: FIG. 44, comprising FIGS. 44A-44D, illustrates the finding that p97/VCP is a Sigma1 associated protein. A novel assay was developed to evaluate Sigma1 ligand modulation of Sigma1 functions involving protein-protein interactions. FIG. 44A is an image of an immunoblot confirming expression of p97/VCP and Sigma1-HA-His6 in detergent soluble cell extracts added to Ni-NTA resin (input). FIG. 44B is an image of an immunoblot relating to eluate from a Ni-NTA affinity purified fraction. Co-isolation/co-purification of p97/VCP was accomplished with Sigma1-HA-His6, which was isolated/purified by Ni-NTA. […] FIG. 44C is an image of an immunoblot confirming expression of p97/VCP and Sigma1-HA-His6 in detergent-soluble cell extracts from MDA-MB-468 breast adenocarcinoma cells treated for 12 hours with 10 μM IPAG (Sigma1 putative antagonist); the extracts were added to Ni-NTA resin (input). FIG. 44D is an image of an immunoblot illustrating eluate from a Ni-NTA affinity purified fraction. Co-isolation/co-purification of p97/VCP was accomplished with Sigma1-HA-His6, which was isolated/purified by Ni-NTA. […] Molecular mass is presented in kilodaltons (kDa).
# FIG. 45, comprising FIGS. 45A-45B, illustrates the finding that ubiquitylated proteins are bound to Sigma1. A novel assay was developed to evaluate Sigma1 ligand modulation of Sigma functions involving association with ubiquitylated proteins. […]
# [4] = test system: MDA-MB-468 cells; test: Alamar blue assay of bortezomib potentiation; assay type: cell-based, human; conditions: 10 μM IPAG with 0.01 μM bortezomib, 20 hours
# Description: In vitro cell proliferation and cell death were quantified by Alamar blue reduction. To evaluate potentiation of proteasome inhibitor (bortezomib)-induced cell death by IPAG, MDA-MB-468 cells were treated for 20 hours with a 10 μM IPAG or 0.01 μM bortezomib alone or both drugs combined. Cell death was confirmed by trypan blue exclusion assay (data not shown). Data are representative of an experiment performed in triplicate.
# [5] = target: Sigma1 (Homo sapiens, UniProt Q99720); conditions: read-out: Ki, affinity for the Sigma1; cited from earlier work
# Sigma1, sequence (Q99720 whole entry): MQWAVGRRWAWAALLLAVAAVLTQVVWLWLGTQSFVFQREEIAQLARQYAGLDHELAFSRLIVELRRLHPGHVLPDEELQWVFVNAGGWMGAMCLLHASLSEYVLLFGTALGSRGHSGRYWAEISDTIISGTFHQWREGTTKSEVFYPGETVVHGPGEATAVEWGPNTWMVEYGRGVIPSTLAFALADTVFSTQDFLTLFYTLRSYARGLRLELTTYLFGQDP
smiles,measurement,setting,value
"N=C(Nc1ccc(I)cc1)NC1C2CC3CC(C2)CC1C3 (centres unmarked) [IPAG, 1-(4-iodophenyl)-3-(2-adamantyl)guanidine]",decrease of Akt phosphorylation at serine 473,"[1]; 10 μM, 24 hours",3 fold
same,decrease of p70S6K phosphorylation at threonine 389,"[1]; 10 μM, 24 hours",3 fold
same,p44/42 ERK1/2 phosphorylation at threonine 202 and tyrosine 204,[1]; 24 hour treatment,abrogated
same,cell cycle profile,[2],accumulation of breast adenocarcinoma cells in G1 phase of the cell cycle
same,Sigma1-associated p97/VCP in Ni-NTA eluate,[3],Lower levels of Sigma1-associated p97/VCP
same,Sigma1-associated ubiquitylated proteins in Ni-NTA eluate,[3],Increased levels of Sigma1-associated ubiquitylated proteins
same,potentiation of bortezomib-induced cell death,[4],potentiates bortezomib-induced adenocarcinoma cell death
same,Ki,[5],5 ± 2 nM
